Experimental data published in the supplement of paper PMC10307832.

Experiments:
Test in all cases: relative viability (nuclei count vs DMSO), 5 days (fraction); higher = more cells survive
[1] = test system: EMC-BAC-2
Procedure, shortened: (§1)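 A single step with final 0.05% Triton X-100, 1% formaldehyde and 1 ug/ml Hoechst fixed the cells and stained nuclei 5 days after treatment. Lung cancer cell lines in 1536-well plates had been treated by pin tool the day after seeding with one drug alone or a fixed anchor-drug dose plus five library-drug doses (not always all listed) in √10 steps, and nuclei were counted on 4× images. Relative viability is the ratio of nuclei in treated wells to nuclei in vehicle wells, taken as the median of duplicate plates.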

[2] = test system: NCI-H1437
Procedure, shortened: as §1

[3] = test system: NCI-H1395
Procedure, shortened: as §1

[4] = test system: CAL-12T
Procedure, shortened: as §1

[5] = test system: NCI-H2009
Procedure, shortened: as §1

[6] = test system: EKVX
Procedure, shortened: as §1

[7] = test system: LCLC-97TM1
Procedure, shortened: as §1

[8] = test system: SW 900
Procedure, shortened: as §1

[9] = test system: NCI-H522
Procedure, shortened: as §1

[10] = test system: LOU-NH91
Procedure, shortened: as §1

[11] = test system: NCI-H596
Procedure, shortened: as §1

[12] = test system: HCC-78
Procedure, shortened: as §1

[13] = test system: NCI-H2023
Procedure, shortened: as §1

[14] = test system: NCI-H2170
Procedure, shortened: as §1

[15] = test system: LK-2
Procedure, shortened: as §1

[16] = test system: NCI-H1650
Procedure, shortened: as §1

[17] = test system: BEN
Procedure, shortened: as §1

[18] = test system: HCC-827
Procedure, shortened: as §1

[19] = test system: UMC-11
Procedure, shortened: as §1

[20] = test system: SK-LU-1
Procedure, shortened: as §1

[21] = test system: NCI-H1755
Procedure, shortened: as §1

[22] = test system: EPLC-272H
Procedure, shortened: as §1

[23] = test system: PC-14
Procedure, shortened: as §1

## Cc1cn(-c2cc(NC(=O)c3ccc(C)c(Nc4nccc(-c5cccnc5)n4)c3)cc(C(F)(F)F)c2)cn1 [Nilotinib] + Nc1nc2[nH]cc(CCc3ccc(C(=O)N[C@@H](CCC(=O)O)C(=O)O)cc3)c2c(=O)[nH]1 [Pemetrexed] (partner 0.2 µM)
[1]; first compound 0.001 µM
  relative viability: 0.427
[1]; first compound 0.003162 µM
  relative viability: 0.618
[1]; first compound 0.01 µM
  relative viability: 0.471
[1]; first compound 0.03162 µM
  relative viability: 0.46
[1]; first compound 0.1 µM
  relative viability: 0.437
[2]; first compound 0.001 µM
  relative viability: 0.28
[2]; first compound 0.003162 µM
  relative viability: 0.34
[2]; first compound 0.01 µM
  relative viability: 0.343
[2]; first compound 0.03162 µM
  relative viability: 0.276
[2]; first compound 0.1 µM
  relative viability: 0.311
[3]; first compound 0.001 µM
  relative viability: 1
[3]; first compound 0.01 µM
  relative viability: 0.607
[3]; first compound 0.03162 µM
  relative viability: 0.642
[3]; first compound 0.1 µM
  relative viability: 0.517
[4]; first compound 0.001 µM
  relative viability: 0.977
[4]; first compound 0.003162 µM
  relative viability: 1.48
[4]; first compound 0.01 µM
  relative viability: 1.34
[4]; first compound 0.03162 µM
  relative viability: 0.992
[4]; first compound 0.1 µM
  relative viability: 1.22
[5]; first compound 0.001 µM
  relative viability: 0.926
[5]; first compound 0.003162 µM
  relative viability: 0.964
[5]; first compound 0.01 µM
  relative viability: 0.919
[5]; first compound 0.03162 µM
  relative viability: 1.06
[5]; first compound 0.1 µM
  relative viability: 0.989
[6]; first compound 0.001 µM
  relative viability: 0.33
[6]; first compound 0.003162 µM
  relative viability: 0.27
[6]; first compound 0.01 µM
  relative viability: 0.471
[6]; first compound 0.03162 µM
  relative viability: 0.353
[7]; first compound 0.001 µM
  relative viability: 0.18
[7]; first compound 0.003162 µM
  relative viability: 0.165
[7]; first compound 0.01 µM
  relative viability: 0.175
[7]; first compound 0.03162 µM
  relative viability: 0.183
[7]; first compound 0.1 µM
  relative viability: 0.0978
[8]; first compound 0.003162 µM
  relative viability: 0.459
[8]; first compound 0.01 µM
  relative viability: 0.38
[8]; first compound 0.03162 µM
  relative viability: 0.239
[8]; first compound 0.1 µM
  relative viability: 0.245
[9]; first compound 0.01 µM
  relative viability: 1.21
[9]; first compound 0.03162 µM
  relative viability: 0.949
[9]; first compound 0.1 µM
  relative viability: 0.792
[10]; first compound 0.001 µM
  relative viability: 0.376
[10]; first compound 0.003162 µM
  relative viability: 1.11
[10]; first compound 0.01 µM
  relative viability: 0.374
[10]; first compound 0.03162 µM
  relative viability: 0.384
[10]; first compound 0.1 µM
  relative viability: 0.403
[11]; first compound 0.001 µM
  relative viability: 0.49
[11]; first compound 0.003162 µM
  relative viability: 0.423
[11]; first compound 0.01 µM
  relative viability: 0.491
[11]; first compound 0.03162 µM
  relative viability: 0.513
[11]; first compound 0.1 µM
  relative viability: 0.371
[12]; first compound 0.001 µM
  relative viability: 0.897
[12]; first compound 0.003162 µM
  relative viability: 0.654
[12]; first compound 0.01 µM
  relative viability: 0.836
[12]; first compound 0.03162 µM
  relative viability: 0.8
[12]; first compound 0.1 µM
  relative viability: 0.935
[13]; first compound 0.001 µM
  relative viability: 0.213
[13]; first compound 0.003162 µM
  relative viability: 0.264
[13]; first compound 0.01 µM
  relative viability: 0.223
[13]; first compound 0.03162 µM
  relative viability: 0.189
[13]; first compound 0.1 µM
  relative viability: 0.14
[14]; first compound 0.001 µM
  relative viability: 0.265
[14]; first compound 0.003162 µM
  relative viability: 0.261
[14]; first compound 0.03162 µM
  relative viability: 0.252
[14]; first compound 0.1 µM
  relative viability: 0.315
[15]; first compound 0.001 µM
  relative viability: 0.184
[15]; first compound 0.003162 µM
  relative viability: 0.3
[15]; first compound 0.01 µM
  relative viability: 0.332
[15]; first compound 0.03162 µM
  relative viability: 0.193
[15]; first compound 0.1 µM
  relative viability: 0.225
[16]; first compound 0.001 µM
  relative viability: 0.409
[16]; first compound 0.003162 µM
  relative viability: 0.526
[16]; first compound 0.01 µM
  relative viability: 0.39
[16]; first compound 0.03162 µM
  relative viability: 0.375
[16]; first compound 0.1 µM
  relative viability: 0.498
[17]; first compound 0.001 µM
  relative viability: 0.868
[17]; first compound 0.003162 µM
  relative viability: 0.715
[17]; first compound 0.01 µM
  relative viability: 0.614
[17]; first compound 0.03162 µM
  relative viability: 0.772
[17]; first compound 0.1 µM
  relative viability: 0.469
[18]; first compound 0.001 µM
  relative viability: 0.272
[18]; first compound 0.003162 µM
  relative viability: 0.224
[18]; first compound 0.03162 µM
  relative viability: 0.217
[18]; first compound 0.1 µM
  relative viability: 0.245
[19]; first compound 0.001 µM
  relative viability: 0.789
[19]; first compound 0.003162 µM
  relative viability: 0.914
[19]; first compound 0.01 µM
  relative viability: 0.857
[19]; first compound 0.03162 µM
  relative viability: 0.495
[19]; first compound 0.1 µM
  relative viability: 0.631
[20]; first compound 0.001 µM
  relative viability: 0.867
[20]; first compound 0.003162 µM
  relative viability: 1.09
[20]; first compound 0.01 µM
  relative viability: 0.949
[20]; first compound 0.03162 µM
  relative viability: 0.524
[20]; first compound 0.1 µM
  relative viability: 0.415
[21]; first compound 0.001 µM
  relative viability: 0.41
[21]; first compound 0.003162 µM
  relative viability: 0.383
[21]; first compound 0.01 µM
  relative viability: 0.328
[21]; first compound 0.03162 µM
  relative viability: 0.306
[21]; first compound 0.1 µM
  relative viability: 0.361
[22]; first compound 0.001 µM
  relative viability: 0.239
[22]; first compound 0.003162 µM
  relative viability: 0.324
[22]; first compound 0.01 µM
  relative viability: 0.195
[22]; first compound 0.03162 µM
  relative viability: 0.309
[22]; first compound 0.1 µM
  relative viability: 0.171
[23]; first compound 0.001 µM
  relative viability: 0.139
[23]; first compound 0.003162 µM
  relative viability: 0.19
[23]; first compound 0.01 µM
  relative viability: 0.0904
[23]; first compound 0.03162 µM
  relative viability: 0.0585
[23]; first compound 0.1 µM
  relative viability: 0.0757
